Where two headings read alike, the source gives them in different places. Blank lines part the entries; values can stand above or below the molecule they belong to.
Legend:
[1] = system: RNA polymerase I (RNA pol I); assay: Compound selectivity by real-time fluorescent quantitative PCR in A549 cells: genes regulated by RNA pol I; assay type: cell-based; settings: for Expression of genes regulated by RNA pol I (18S, 28S): 72 h, qPCR ΔΔCt, significance by T-Test
Experimental: (§1) Tumor cells A549 were plated at an appropriate density and incubated overnight. The cells were treated with compounds or DMSO for 72 h, and total cellular RNA was extracted according to the instructions of TaqMan™ Fast Advanced Cells-to-CT™ Kit (Invitrogen #A35377). Briefly, the cells were washed with PBS twice. Supernatants were discarded, and 50 μL/well of lysis buffer was added. The cells were incubated at room temperature for 5 min. Then, 5 μL of stop buffer was added. The mixture was left to stand for 2 min and then placed on ice in preparation for reverse transcription and extraction of cDNA. QPCR was carried out according to the requirements of TaqMan® Fast Advanced Master Mix (Invitrogen). Eukaryotes have three different nuclear RNA polymerases, namely RNA polymerase I (RNA pol I), RNA polymerase II (RNA pol II) and RNA polymerase III (RNA pol III). To eliminate the effect of the compounds on the inhibition of the activity of other RNA polymerases, we selected 18S rRNA, 28S rRNA; β-actin; 5S rRNA; ND1, CYTB and COX1 transcriptionally regulated by RNA Pol I, II, III and POLRMT. Whether the mRNA levels of these genes were inhibited was detected. The qPCR results were analyzed by the ΔΔCt method and statistically analyzed by Graphpad8.0. The significant differences were statistically analyzed by T-Test.

[2] = system: RNA polymerase II (RNA pol II); assay: Compound selectivity by real-time fluorescent quantitative PCR in A549 cells: gene regulated by RNA pol II; assay type: cell-based; settings: for Expression of genes regulated by RNA pol II (β-actin): 72 h, qPCR ΔΔCt, significance by T-Test
Experimental: as §1

[3] = system: RNA polymerase III (RNA pol III); assay: Compound selectivity by real-time fluorescent quantitative PCR in A549 cells: gene regulated by RNA pol III; assay type: cell-based; settings: for Expression of genes regulated by RNA pol III (5S): 72 h, qPCR ΔΔCt, significance by T-Test
Experimental: as §1

[4] = molecular target: T1, POLRMT (Homo sapiens, UniProt O00411); assay: Compound selectivity by real-time fluorescent quantitative PCR in A549 cells: genes regulated by POLRMT; assay type: cell-based; settings: 72 h, qPCR ΔΔCt, significance by T-Test
T1 construct: endogenous in cells; host or cells: A549
T1 sequence (O00411 42-1230): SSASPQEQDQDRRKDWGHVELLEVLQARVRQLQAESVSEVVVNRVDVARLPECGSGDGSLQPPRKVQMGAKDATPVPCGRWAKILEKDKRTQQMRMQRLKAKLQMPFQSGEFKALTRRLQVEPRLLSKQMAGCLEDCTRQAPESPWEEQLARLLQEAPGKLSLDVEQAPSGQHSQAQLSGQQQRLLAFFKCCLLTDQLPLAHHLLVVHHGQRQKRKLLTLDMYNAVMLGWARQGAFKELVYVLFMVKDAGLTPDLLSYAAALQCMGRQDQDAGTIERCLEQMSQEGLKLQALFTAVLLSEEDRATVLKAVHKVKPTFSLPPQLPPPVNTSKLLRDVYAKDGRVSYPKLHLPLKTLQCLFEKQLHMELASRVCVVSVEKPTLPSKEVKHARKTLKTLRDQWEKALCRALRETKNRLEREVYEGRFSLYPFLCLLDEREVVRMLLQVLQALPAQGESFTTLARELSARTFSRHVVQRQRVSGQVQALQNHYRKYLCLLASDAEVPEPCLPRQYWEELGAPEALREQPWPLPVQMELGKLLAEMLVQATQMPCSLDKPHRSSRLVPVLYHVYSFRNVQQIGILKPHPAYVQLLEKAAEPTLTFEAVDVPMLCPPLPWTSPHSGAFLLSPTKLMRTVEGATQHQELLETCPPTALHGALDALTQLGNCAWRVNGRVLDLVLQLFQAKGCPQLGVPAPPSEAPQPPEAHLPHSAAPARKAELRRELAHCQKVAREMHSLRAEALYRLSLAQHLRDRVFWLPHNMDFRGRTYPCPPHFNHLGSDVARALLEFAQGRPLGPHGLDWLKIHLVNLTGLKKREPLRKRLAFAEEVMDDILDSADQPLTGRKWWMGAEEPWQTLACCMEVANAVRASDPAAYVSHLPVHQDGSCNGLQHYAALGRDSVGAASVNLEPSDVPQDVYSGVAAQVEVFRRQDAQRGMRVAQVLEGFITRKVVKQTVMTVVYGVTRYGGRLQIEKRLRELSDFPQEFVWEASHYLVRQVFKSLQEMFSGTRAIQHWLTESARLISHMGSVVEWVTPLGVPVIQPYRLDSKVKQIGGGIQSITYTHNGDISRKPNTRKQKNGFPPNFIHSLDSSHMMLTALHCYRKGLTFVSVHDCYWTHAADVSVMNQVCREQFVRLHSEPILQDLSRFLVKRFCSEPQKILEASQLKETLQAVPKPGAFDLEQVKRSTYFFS
Experimental: as §1

[5] = system: A2780 cells; assay: Determination of cell activity (CellTiter-Glo Luminescent Cell Viability Assay); assay type: cell-based; settings: A2780 cells, 7 days treatment, CellTiter-Glo, read-out: IC50
Experimental: To examine the effect of compounds on cell viability, ATP was directly quantified using the CellTiter-Glo Luminescent Cell Viability Assay (Promega) to determine the number of viable cells.
Cell density was selected based on optimal signal intensity and growth curve for the inoculation of A2780 cells. The cells were incubated at 37° C. and 5% C02 overnight. Cells were treated with blank group, DMSO group and compound group, respectively, at 37° C. and 5% C02 for 7 days. The prepared solutions were added to cell wells according to the instructions of CellTiter-Glo (Promega), and shaken at a speed of 400 g for 2 min. Then, the solutions were centrifuged at 1000 g for 2 min and incubated at rest for 30 min to ensure a complete reaction. […] readings were taken using a multi-label microplate reader (Perkin Elmer) to calculate IC50 values.

[6] = system: MOLM-13-luc tumor cells; assay: In vivo pharmacodynamic test, MOLM-13-luc orthotopic mouse model of leukemia
Experimental: The efficacy of compounds was evaluated using an orthotopic mouse model of leukemia. […] After the cell confluence reached 80%-90%, the cells were subcultured into separate flasks. The tumor cells in the logarithmic growth phase were used for the inoculation of tumors in vivo. Approximately 7 days after the inoculation of the tumor cells, according to the body weights of the animals and optical signal intensity at tumor sites, the animals were randomly divided into 4 groups, namely solvent control group [5% TPGS in PH 8 buffer (50 mM potassium dihydrogen phosphate buffer), BID, intragastric administration], IMT1B (50 mpk, BID, intragastric administration), A1-1-5 (25 mpk, BID, intragastric administration) and A1-1-5 (50 mpk, BID, intragastric administration), with 10 animals in each group. Tumor growth was monitored, and behavioral changes in the animals were also monitored.
During the experiment, all the animals were weighed twice a week. The percentage of body weight change (BW change, %) was calculated using the following formula: BW change=(BW Day X/BW Day 0)×100, where BW Day X is the body weight of the animals on the day of administration, and BW Day 0 is the body weight of the animals on the day of grouping.
Mice were imaged twice a week according to their status using the small animal living imaging system IVIS Lumina III (Perkin Elmer). The signal intensity of the bioluminescence imaging (BLI, unit: photons/s) at tumor cell inoculation sites in mice was monitored, which served as the main indicator for evaluating tumor growth and the efficacy of drugs. The specific operation procedures were as follows.
After the mice were intraperitoneally injected with D-luciferin (manufactured by Perkin Elmer, 15 mg/mL solution, injected at […] according to the body weight of experimental animals), the animals were subjected to inhalation anesthesia using 1%-2% isoflurane. Approximately 10 minutes after the injection of D-luciferin, the animals were imaged using IVIS Lumina III. The imaging results were analyzed and processed using the Living Image software (Perkin Elmer), and the optical signal intensity in the ROI (regions of interest) of the whole body of each animal was calculated. […] The administration and imaging were continued for the animals in other groups. At the endpoint of the experiment, the median survival times of all groups throughout the experiment were calculated, and the curves were plotted.

[7] = Pharmacokinetic assay in CD1 mice; assay type: in vivo; settings: for F: bioavailability; for maximum plasma concentration Cmax compared with IMT1B / plasma exposure AUC compared with IMT1B: comparison in words; for half-life: Table I-3, read-out: T1/2 (h) for oral administration (converted)
Experimental: pharmacokinetic assay of compounds was carried out in CD1 mice aged 6-8 weeks with IMT1B as a positive control. The compounds and the positive control were dissolved in 30% aqueous hydroxypropyl-β-cyclodextrin solution containing 25% PEG400 and administered via intravenous injection (1 mg/kg) or intragastric administration (5 mg/kg). Blood samples were collected at 0.033, 0.083, 0.25, 0.5, 1, 2, 4, 8, 24 h and 0.083, 0.25, 0.5, 1, 2, 4, 8, 24 h respectively after administration.
The concentration of the compounds in plasma samples was analyzed using the LC-MS/MS method. Pharmacokinetic calculations were performed using WinNonlin (Phoenix™, version 8.3) or other similar software. The following pharmacokinetic parameters were calculated from the plasma concentration vs. time data: for intravenous administration: T1/2, C0, AUClast, AUCinf, MRTinf, Cl, Vss, regression coefficient, etc.; for oral administration: T1/2, Cmax, Tmax, AUClast, AUCinf, bioavailability, etc. The above parameter data were statistically calculated and described using descriptive statistics such as mean value and standard deviation.

[8] = at the same dose (50 mpk, BID, intragastric)
[9] = main pharmacokinetic parameters, Table I-4
[10] = mouse, plasma, po, 5 mg/kg, main pharmacokinetic parameters, Table I-4
[11] = mouse, plasma, po, 5 mg/kg, main pharmacokinetic parameters, Table I-4, read-out: Cmax
[12] = mouse, plasma, po, intragastric administration 5 mg/kg

IC50 ([5]; Homo sapiens, 168 h): < 20 nM | half-life [7, 12]: 4.29 h
Compound: CC(Oc1ccc2c(-c3ccc(F)cc3Cl)cc(=O)oc2c1)C(=O)C1CCC(C(=O)[O-])CC1.[Na+] (stereo not drawn) [α-10]

IC50 ([5]; Homo sapiens, 168 h): 20 to 100 nM | half-life [7, 12]: 5.27 h
Compound: CC(Oc1ccc2c(-c3ccc(F)cc3Cl)cc(=O)oc2c1)C(=O)C1CCNCC1 (stereo not drawn) [α-11]

IC50 ([5]; Homo sapiens, 168 h): 20 to 100 nM | half-life [7, 12]: 6.91 h
Compound: CC(Oc1ccc2c(-c3ccc(F)cc3Cl)cc(=O)oc2c1)C(=O)c1ccncc1 (stereo not drawn) [α-13]

Continued, molecule first:

Compound: C[C@@H](Oc1ccc2c(-c3ccc(F)cc3Cl)cc(=O)oc2c1)C(=O)c1cccc(C(=O)O)c1 [Compound A1-1-5]
Expression of genes regulated by RNA pol I (18S, 28S) [1]: (-) ((-) represents P≥ 0.05) | Expression of genes regulated by RNA pol II (β-actin) [2]: (-) ((-) represents P≥ 0.05) | Expression of genes regulated by RNA pol III (5S) [3]: (-) ((-) represents P≥ 0.05) | Expression of genes regulated by POLRMT (ND1, CYTB, COX1) [4]: (++) ((++) represents P < 0.01) | IC50 ([5]; Homo sapiens, 168 h): 20 to 100 nM | efficacy at a relatively low dose ([6]; MOLM13 orthotopic hematological tumor model, BID intragastric): effective at a relatively low dose | tumor inhibitory effect (BLI imaging) ([6]; MOLM13 orthotopic hematological tumor model, BID intragastric, 25 and 50 mpk): good tumor inhibitory effect | median survival time compared with IMT1B [6, 8]: significantly superior to IMT1B | tumor inhibition compared with IMT1B [6, 8]: significantly superior to IMT1B | F ([7]; Table I-4): 85.846% | maximum plasma concentration Cmax compared with IMT1B [7]: significantly superior to IMT1B | plasma exposure AUC compared with IMT1B [7]: significantly superior to IMT1B | T1/2 [7, 9]: 3.158 h | AUC(0-inf) [7, 10]: 179 µg·h/mL | AUC(0-t) [7, 10]: 178 µg·h/mL | Cmax [7, 11]: 44100 ng/mL | half-life [7, 12]: 3.16 h

Compound: CC(Oc1ccc2c(-c3ccc(F)cc3Cl)cc(=O)oc2c1)C(=O)c1cc(F)cc(C(=O)O)c1 (stereo not shown) [Compound A-1-2-1-93]
IC50 ([5]; Homo sapiens, 168 h): 20 to 100 nM | F ([7]; Table I-4): 102.733% | maximum plasma concentration Cmax compared with IMT1B [7]: significantly superior to IMT1B | plasma exposure AUC compared with IMT1B [7]: significantly superior to IMT1B | T1/2 [7, 9]: 11.706 h | AUC(0-inf) [7, 10]: 211 µg·h/mL | AUC(0-t) [7, 10]: 155 µg·h/mL | Cmax [7, 11]: 8960 ng/mL | half-life [7, 12]: 11.7 h

Compound: CC(Oc1ccc2c(-c3ccc(F)cc3Cl)cc(=O)oc2c1)C(=O)c1cc(F)c(O)c(F)c1 (stereo not shown) [Compound A-1-2-1-94]
IC50 ([5]; Homo sapiens, 168 h): < 20 nM | half-life [7, 12]: 4.57 h

Compound: CC(Oc1ccc2c(-c3ccc(F)cc3Cl)cc(=O)oc2c1)C(=O)C1CCN(C2CC2)CC1 (stereo not shown) [Compound A-1-7-1-2]
IC50 ([5]; Homo sapiens, 168 h): 100 to 1000 nM | half-life [7, 12]: 3.78 h

Compound: CC(Oc1ccc2c(-c3ccc(F)cc3Cl)cc(=O)oc2c1)C(=O)c1ccc[nH]1 (stereo not shown) [Compound A-1-10-1-4]
IC50 ([5]; Homo sapiens, 168 h): 100 to 1000 nM | half-life [7, 12]: 3.76 h

Compound: C[C@@H](Oc1ccc2c(-c3ccc(F)cc3Cl)cc(=O)oc2c1)C(=O)N1CCC[C@H](C(=O)O)C1 [IMT1B, reference compound]
Expression of genes regulated by RNA pol I (18S, 28S) [1]: (-) ((-) represents P≥ 0.05) | inhibition of the activity of RNA polymerase I ([1]; qPCR, in words): do not inhibit | Expression of genes regulated by RNA pol II (β-actin) [2]: (-) ((-) represents P≥ 0.05) | inhibition of the activity of RNA polymerase II ([2]; qPCR, in words): do not inhibit | Expression of genes regulated by RNA pol III (5S) [3]: (-) ((-) represents P≥ 0.05) | inhibition of the activity of RNA polymerase III ([3]; qPCR, in words): do not inhibit | Expression of genes regulated by POLRMT (ND1, CYTB, COX1) [4]: (++) ((++) represents P < 0.01) | IC50 [5]: 20 to 100 nM | F ([7]; Table I-4): 80.236% | T1/2 (h) for oral administration ([7]; intragastric administration 5 mg/kg, Table I-3): 2.445 h | AUCInf [7, 9]: 24.420076 µg·h/mL | AUClast [7, 9]: 24.389836 µg·h/mL | Cmax [7, 9]: 7300 ng/mL | T1/2 [7, 9]: 2.445 h

Source: patent US20260200885A1, “BENZOPYRONE COMPOUNDS AS WELL AS PREPARATION METHOD THEREFOR AND USE THEREOF” (CHENGDU DI’AO JIUHONG PHARMACEUTICAL FACTORY, priority 2022, published 2026)
